Test system: Human immunodeficiency virus 1
Experiment: Compound was tested for inhibition of HIV-1
Format: functional, organism-based

Row | IC50 [µM] | Structure (SMILES)
1 | 14 | Nc1ncnc2c1ncn2C=C=CCO (stereo in doubt; 1a)
2 | 5.8 | Nc1ncnc2c1ncn2C=C=CCO (stereo in doubt; 2)
3 | > 200 | Nc1ncnc2c1ncn2C=C=CCO (stereo in doubt; 3)
